We go through 23 compounds from patent US10214512B2, “Factor XIA inhibitors” (MERCK SHARP & DOHME CORP., priority 2015, dated 2019).

As usually defined, the Ki is a dissociation constant, usually derived from enzyme kinetics or from competition with a known ligand.

For assay [1], the target named is purified Human plasma Kallikrein (Homo sapiens (Human), UniProt P03952). In words: Kallikrein Assay. The class given is biochemical. The following applies: purified Human plasma Kallikrein 0.5 nM; substrate Acetyl-K-P-R-AFC; 50 mM HEPES pH 7.4; Ki from IC50 by Cheng Prusoff. Put shortly: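 Purified human plasma kallikrein (0.5 nM) with fluorogenic Ac-K-P-R-AFC ([…]) in 50 mM HEPES pH 7.4, 150 mM NaCl, 5 mM CaCl2, 0.1% PEG 8000, at rt or 37 °C. Substrate hydrolysis rate read with and without inhibitor; IC50 from four-parameter logistic fit, converted to Ki by Cheng–Prusoff.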
purified Human plasma Kallikrein, sequence (P03952 391-638): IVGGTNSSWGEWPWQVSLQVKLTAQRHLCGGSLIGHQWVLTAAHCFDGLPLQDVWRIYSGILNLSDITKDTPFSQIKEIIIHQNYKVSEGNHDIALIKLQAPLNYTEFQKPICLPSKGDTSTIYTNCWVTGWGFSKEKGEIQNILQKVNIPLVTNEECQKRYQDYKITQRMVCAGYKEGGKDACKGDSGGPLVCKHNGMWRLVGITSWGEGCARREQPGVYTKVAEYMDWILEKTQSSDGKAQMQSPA
purified Human plasma Kallikrein, sequence (P03952 20-390 partner): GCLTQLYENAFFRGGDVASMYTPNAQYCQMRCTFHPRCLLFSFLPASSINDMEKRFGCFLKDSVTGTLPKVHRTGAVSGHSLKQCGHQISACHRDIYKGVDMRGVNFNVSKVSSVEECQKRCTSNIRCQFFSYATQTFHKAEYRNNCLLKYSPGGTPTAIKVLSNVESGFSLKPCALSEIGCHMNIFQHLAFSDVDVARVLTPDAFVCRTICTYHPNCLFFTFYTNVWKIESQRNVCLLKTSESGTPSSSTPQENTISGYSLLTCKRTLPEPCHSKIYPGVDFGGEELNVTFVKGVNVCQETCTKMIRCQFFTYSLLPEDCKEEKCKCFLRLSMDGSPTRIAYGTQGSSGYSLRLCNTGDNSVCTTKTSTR

The target in assay [2] is purified human Factor XIa (Homo sapiens (Human), UniProt P03951). Description: Factor XIa Assay. Format: biochemical. The following applies: purified human Factor XIa 40 pM; substrate Z-Gly-Pro-Arg-AFC 100 μM; 50 mM HEPES pH 7.4; read-out: Human FXIa Ki. Put shortly: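 Ki obtained from the dependence of uninhibited/inhibited initial-velocity ratio on inhibitor concentration, under a competitive-inhibition model. Reactions used 100 μM Z-Gly-Pro-Arg-AFC and 40 pM final human Factor XIa in pH 7.4 HEPES buffer with NaCl, CaCl2 and PEG 8000; run at rt or 37° C following pre-equilibration.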
purified human Factor XIa, sequence (P03951 388-625): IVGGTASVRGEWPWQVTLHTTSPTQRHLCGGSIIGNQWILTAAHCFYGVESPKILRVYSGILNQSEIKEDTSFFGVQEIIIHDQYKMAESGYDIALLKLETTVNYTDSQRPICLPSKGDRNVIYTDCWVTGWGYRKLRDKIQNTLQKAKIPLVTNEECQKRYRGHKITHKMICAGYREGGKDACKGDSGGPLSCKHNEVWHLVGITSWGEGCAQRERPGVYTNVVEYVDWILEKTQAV
purified human Factor XIa, sequence (P03951 19-387 partner): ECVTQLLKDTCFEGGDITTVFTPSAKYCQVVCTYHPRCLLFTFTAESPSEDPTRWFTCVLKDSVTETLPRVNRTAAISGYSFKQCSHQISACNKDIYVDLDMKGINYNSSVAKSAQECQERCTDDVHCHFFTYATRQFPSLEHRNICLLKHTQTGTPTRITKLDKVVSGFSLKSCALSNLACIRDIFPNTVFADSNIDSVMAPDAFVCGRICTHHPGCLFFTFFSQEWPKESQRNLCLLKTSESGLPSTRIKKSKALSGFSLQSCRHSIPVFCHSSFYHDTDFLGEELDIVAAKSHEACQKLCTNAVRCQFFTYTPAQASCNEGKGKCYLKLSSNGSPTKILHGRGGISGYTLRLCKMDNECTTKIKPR

Consider `O=C1CCCCC(c2ccc(-c3cc(Cl)cc(F)c3-n3cnnn3)c[n+]2[O-])c2cccc(c2)-c2cc(F)ccc2N1` (single isomer, unassigned) [Example 7-a, 5-(5-chloro-3-fluoro-2-(1H-tetrazol-1-yl)phenyl)-2-(2^5-fluoro-4-oxo-3-aza-1(1,3),2(1,2)-dibenzenacyclononaphane-9-yl)pyridine 1-oxide], for which the inhibition constant (Ki) in assay [1] is 238 nM; in assay [2], 2.4 nM.
For `COC(=O)Nc1ccc2c(c1)NC(=O)CCCC[C@H](c1ccc(-c3cc(Cl)ccc3-c3cnn(C(F)F)c3)c[n+]1[O-])c1cccc-2c1` (single isomer, unassigned) [Example 42], in that order: 3.1 nM and 0.44 nM.
The like results for `COC(=O)Nc1ccc2c(c1)NC(=O)CCCCC(c1cc(OC)c(-c3c(F)ccc(Cl)c3F)c[n+]1[O-])c1cccc-2c1` (single isomer, unassigned) [Example 87-a, 5-(3-Chloro-2,6-difluorophenyl)-4-methoxy-2-(2^4-((methoxycarbonyl)amino)-4-oxo-3-aza-1(1,3),2(1,2) -dibenzenacyclononaphane-9-yl)pyridine 1-oxide] were, in that order, 12.7 nM and 4.1 nM.
Regarding `C[C@@H]1CCC[C@@H](c2ccc(-c3cc(Cl)ccc3-n3cnnn3)c[n+]2[O-])c2cccc(c2)-c2cc(F)ccc2NC1=O` [Example 3-a, 5-(5-chloro-2-(1H-tetrazol-1-yl)phenyl)-2-((5R,9R)-2^5-fluoro-5-methyl-4-oxo-3-aza-1(1,3),2(1,2)-dibenzenacyclononaphane-9-yl)pyridine 1-oxide], the results for the Ki in assay [1] and in assay [2] were 79.8 nM and 27.7 nM, respectively.
For `O=C1CCCCC(c2ccc(-c3c(-n4cnnn4)ccc(Cl)c3F)c[n+]2[O-])c2c[nH]c(n2)-c2cc(F)ccc2N1` (racemic) [Example 161, (Z)-5-(3-chloro-2-fluoro-6-(1H-tetrazol-1-yl)phenyl)-2-(2^5-fluoro-4-oxo-1^1H-3-aza-1(2,4)-imidazola-2(1,2)-benzenacyclononaphane-9-yl)pyridine 1-oxide], the Ki came out at 1.35 nM in assay [1] and 0.55 nM in assay [2].
As to `C[C@H]1CCC[C@H](c2ccc(-c3cc(Cl)ccc3-n3cnnn3)c[n+]2[O-])c2cccc(c2)-c2cc(F)ccc2NC1=O` [Example 3-b, 5-(5-chloro-2-(1H-tetrazol-1-yl)phenyl)-2-((5S,9S)-2^5-fluoro-5-methyl-4-oxo-3-aza-1(1,3),2(1,2)-dibenzenacyclononaphane-9-yl)pyridine 1-oxide], the Ki in assay [1] stood at 10.6 nM; in assay [2], 0.57 nM.
For `COC(=O)Nc1ccc2c(c1)NC(=O)CCCCC(c1ccc(-c3cc(Cl)ccc3-n3cnnn3)cn1)c1nc-2c[nH]1` (stereo not shown) [Example 97, methyl (Z)-(9-(5-(5-chloro-2-(1H-tetrazol-1-yl)phenyl)pyridin-2-yl)-4-oxo-1^1H-3-AZA-1(4,2)-imidazola-2(1,2)-benzenacyclononaphane-2^4-yl)carbamate], in that order: 161 nM and 3.3 nM.
In the case of `COC(=O)Nc1ccc2c(c1)NC(=O)C(C)(C)CCC[C@H](c1ccc(-c3c(F)cccc3OC(F)F)c[n+]1[O-])c1nc-2c(C)[nH]1` (single isomer, unassigned) [Example 147], the Ki in assay [1] was determined as 3.08 nM; in assay [2], 0.22 nM.
The like results for `O=C(C1CCCCC(c2ccc(-c3cc(Cl)ccc3-n3cnnn3)c[n+]2[O-])c2cccc(c2)-c2cc(F)ccc2N1)N1CCCC1` (single isomer, unassigned) [Example 79-b, 5-(5-Chloro-2-(1H-tetrazol-1-yl)phenyl)-2-(2^5-fluoro-4-(pyrrolidine-1-carbonyl)-3-aza-1(1,3),2(1,2)-dibenzenacyclononaphane-9-yl)pyridine 1-oxide] were, in that order, 119 nM and 0.24 nM.
With `COC(=O)Nc1ccc2c(c1)NC(=O)[C@@H](C)CCC[C@@H](c1ccc(-c3c(F)cccc3F)c[n+]1[O-])c1nc-2c(C)[nH]1` (single isomer, unassigned) [Example 143-c], the inhibition constant (Ki) stood at 5.92 nM in assay [1] and 1.4 nM in assay [2].
Regarding `O=C1CCCCC(c2ccc(-c3cc(Cl)ccc3-n3cc(C(F)F)nn3)c[n+]2[O-])c2nc(c[nH]2)-c2cc(F)ccc2N1` (single isomer, unassigned) [Example 105-a, (Z)-5-(5-Chloro-2-(4-(difluoromethyl)-1H-1,2,3-triazol-1-yl)phenyl)-2-(2^5-fluoro-4-oxo-1^1H-3-aza-1 (4,2)-imidazola-2(1,2)-benzenacyclononaphane-9-yl)pyridine 1-oxide], the Ki in assay [1] was determined as 17.2 nM; in assay [2], 0.56 nM.
As to `COC(=O)Nc1ccc2c(c1)NC(=O)CCCCC(c1ccc(-c3c(F)ccc(Cl)c3F)c[n+]1[O-])c1cccc-2c1` (single isomer, unassigned) [Example 13-a, 5-(3-Chloro-2,6-difluorophenyl)-2-(2^4-((methoxycarbonyl)amino)-4-oxo-3-aza-1(1,3),2(1,2)-dibenzenacyclononaphane-9-yl)pyridine 1-oxide], the figures for the inhibition constant (Ki) in assay [1] and in assay [2] were 1.55 nM and 0.36 nM, respectively.
For `O=C1CCCCC(c2ccc(-c3cc(F)ccc3-n3cc(Cl)nn3)c[n+]2[O-])c2cccc(c2)-c2cc(F)ccc2N1` (single isomer, unassigned) [Example 90-a, 5-(2-(4-Chloro-1H-1,2,3-triazol-1-yl)-5-fluorophenyl)-2-(2^5-fluoro-4-oxo-3-aza-1(1,3),2(1,2)-dinenzenacyclononaphane-9-yl)pyridine 1-oxide], in that order: 121 nM and 3.2 nM.
Turning to `O=C1CCCCC(c2ccc(-c3cc(Cl)ccc3-n3cc(C(F)(F)F)nn3)c[n+]2[O-])c2cccc(c2)-c2c(cnn2C(F)F)N1` (stereo not shown) [Example 165, 5-(5-chloro-2-(4-(trifluoromethyl)-1H-1,2,3-triazol-1-yl)phenyl)-2-(1^1-(difluoromethyl)-8-oxo-1^1H-9-aza-1(5,4)-pyrazola-2(1,3) -benzenacyclononaphane-3-Yl)pyridine 1-oxide], the Ki amounted to 5.76 nM in assay [1] and 0.21 nM in assay [2].
The like results for `COC(=O)Nc1ccc2c(c1)NC(=O)CC1CC1CC(c1ccc(-c3c(OC(F)F)ccc(Cl)c3F)c[n+]1[O-])c1nc-2c(C)[nH]1` (racemic) [Example 159] were, in that order, 3.5 nM and 0.66 nM.
Take `COC(=O)Nc1ccc2c(c1)NC(=O)CCCCC(c1ccc(-c3c(F)ccc(Cl)c3F)c[n+]1[O-])c1nc-2c(Cl)[nH]1` (single isomer, unassigned) [Example 110-a, (Z)-5-(3-Chloro-2,6-difluorophenyl)-2-(1^5-chloro-2^4-((Methoxycarbonyl)amino)-4-oxo-1^1H-3-aza-1(4,2)-imidazola-2(1,2) -benzenacyclononaphane-9-yl)pyridine 1-oxide]: the Ki was 0.21 nM in assay [1] and 0.52 nM in assay [2].
As to `COC(=O)Nc1ccc2c(c1)NC(=O)CCCC[C@H](c1ccc(-c3cc(Cl)ccc3-n3cc(C(F)(F)F)nn3)c[n+]1[O-])c1cccc-2c1` [Example 39, (S)-5-(5-chloro-2-(4-(trifluoromethyl)-1H-1,2,3-triazol-1-yl)phenyl)-2-(2^4-((methoxycarbonyl)amino)-4-oxo-3-aza-1(1,3),2(1,2)-dibenzenacyclononaphane-9-yl)pyridine 1-oxide], the inhibitory constant (Ki) in assay [1] is 0.81 nM; in assay [2] it was 0.26 nM.
In the case of `O=C1CCCC[C@H](c2ccc(-c3cc(Cl)ccc3-n3cnnn3)cn2)c2cccc(c2)-c2cc(F)ccc2N1` [Example 1-a, (S)-9-(5-(5-Chloro-2-(1H-tetrazol-1-yl)phenyl)pyridin-2-yl)-2^5-fluoro-3-aza-1(1,3),2(1,2)-dibenzenacyclononaphan-4-one], the Ki in assay [1] came to 205 nM; in assay [2], 22.3 nM.
Take `COC(=O)Nc1ccc2c(c1)NC(=O)C1(CCC[C@H](c3ccc(-c4c(F)cccc4OC(F)F)c[n+]3[O-])c3nc-2c(C)[nH]3)CC1` (single isomer, unassigned) [Example 148]: the Ki in assay [1] was determined as 37.3 nM; in assay [2], 2.5 nM.
Turning to `C[C@@H]1CCC[C@H](c2ccc(-c3ccccc3-n3cc(Cl)nn3)c[n+]2[O-])c2cccc(c2)-c2c(cnn2C(F)F)NC1=O` (single isomer, unassigned) [Example 172-a], the Ki in assay [1] amounted to 376 nM; in assay [2], 1.37 nM.
In the case of `COC(=O)Nc1ccc2c(c1)NC(=O)CCCCC(c1ccc(-c3c(F)ccc(Cl)c3F)c[n+]1[O-])c1nc-2c[nH]1` (single isomer, unassigned) [Example 96-a, (Z)-5-(3-chloro-2,6-difluorophenyl)-2-(2^4-((methoxycarbonyl)amino)-4-oxo-1^1H-3-aza-1(4,2)-imidazola-2(1,2)-benzenacyclononaphane-9-yl)pyridine 1-oxide], the Ki is 0.6 nM in assay [1] and 0.53 nM in assay [2].
The like results for `COC(=O)Nc1ccc2c(c1)NC(=O)CCCC[C@H](c1ccc(-c3c(F)cccc3F)c[n+]1[O-])c1nc-2c(C)[nH]1` (single isomer, unassigned) [Example 119] were, in that order, 1.68 nM and 0.54 nM.
In the case of `COC(=O)Nc1ccc2c(c1)NC(=O)CCCCC(c1ccc(-c3c(F)ccc(Cl)c3F)c[n+]1[O-])c1nc-2c(C)[nH]1` (single isomer, unassigned) [Example 111-a, (Z)-5-(3-chloro-2,6-difluorophenyl)-2-(2^4-((methoxycarbonyl)amino)-1^5-methyl-4-oxo-1^1H-3-aza-1(4,2)-imidazola-2(1,2) -benzenacyclononaphane-9-yl)pyridine 1-oxide], the inhibition constant Ki amounted to 0.34 nM in assay [1] and 0.19 nM in assay [2].
